# Experimental data as given in US8349571B2, “High content screening” (Cellaura Technologies Limited, priority 2004, dated 2013).
# Legend:
# Assay type in all cases: cell-based
# [1] = molecular target: T1, human A1-AR (Homo sapiens, UniProt P30542); experiment: c-fos-pGL3 luciferase reporter functional study in CHO-A1fos cells
# T1 construct: expressed in transfected cells; host or cells: CHO-K1 (CHO-A1fos)
# T1 sequence (P30542 1-326): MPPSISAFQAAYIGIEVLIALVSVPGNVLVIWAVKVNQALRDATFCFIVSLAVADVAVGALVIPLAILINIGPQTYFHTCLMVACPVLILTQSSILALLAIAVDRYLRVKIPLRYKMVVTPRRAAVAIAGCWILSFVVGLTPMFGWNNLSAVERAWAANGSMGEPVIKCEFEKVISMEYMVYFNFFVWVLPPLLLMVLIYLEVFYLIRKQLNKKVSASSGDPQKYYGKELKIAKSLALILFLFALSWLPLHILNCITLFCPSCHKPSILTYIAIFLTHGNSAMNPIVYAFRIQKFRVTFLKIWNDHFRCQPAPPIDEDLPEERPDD
# Description: (§1) Functional studies were performed in CHO-K1 cells expressing both the human A1-AR and a c-fos-pGL3 reporter vector (CHO-A1fos cells). […] Luciferase expression was quantified using a Luclite® kit according to manufacturer's instructions. Live cell confocal imaging was carried out on CHO-A1 cells or CHO cells expressing the A1-AR tagged on the C-terminus with a green fluorescent protein (CHO-A1Tpz).
# [2] = molecular target: T1, human A1-AR; experiment: Live cell confocal imaging of fluorescent ligand binding in CHO-A1 cells; conditions: 100 nM BY630-ABEA
# Description: as §1
# [3] = molecular target: T2, A1-AR tagged on the C-terminus with a green fluorescent protein (Homo sapiens, UniProt P30542); experiment: Live cell confocal imaging in CHO cells expressing A1-AR tagged with green fluorescent protein (CHO-A1Tpz)
# T2 construct: expressed in transfected cells; host or cells: CHO (CHO-A1Tpz)
# T2 sequence (P30542 1-326): T1 sequence (P30542 1-326)
# Description: as §1
compound,measurement,setting,value
"CCCn1c(=O)c2[nH]c(C3CCCC3)nc2n(CCC)c1=O [DPCPX, 8-cyclopentyl-1,3-dipropylxanthine, reference compound]",effect on the response to BY630-ABEA,"[1]; 100 nM DPCPX, n=3",completely blocked the response to BY630-ABEA
same,effect of preincubation on BY630-ABEA membrane binding,"[2]; DPCPX 1 μM, 30 min preincubation",substantially reduced
NECA-BODIPY 630/650 [BY630-ABEA],"pEC50, stimulation of luciferase expression","[1]; CHO-A1fos cells, 5 h agonist stimulation, mean s.e.mean",6.76±0.18
same,time after which binding of ligand to the membrane was detectable,"[2]; CHO-A1 cells, n=3",5 min
same,time after which binding of ligand to the membrane was substantial,"[2]; CHO-A1 cells, n=3",30 min
same,specificity of ligand binding from overlaid red and green channel images (FIG. 4B),"[3]; 100 nM, 30′, CHO cells (A1-R-Topaz)",ligand binding is specific to receptors
same,co-localisation of ligand fluorescence with tagged receptor,[3]; CHO-A1Tpz cells,co-localisation of ligand fluorescence at the membrane with that from the fluorescently tagged A1-AR
XAC-BODIPY 630/650 [BODIPY-XAC],specificity of ligand binding from overlaid red and green channel images (FIG. 4A),"[3]; 50 nM, 15′, CHO cells (A1-R-Topaz)",ligand binding is specific to receptors
